{"source": "patent US7645788B2", "about": "“Tetramerous derivative of indole-3-carbinol with anti-carcinogenic activity and method of synthesis of said derivative” (Universita' Degli Studi Di Urbino, priority 2001, dated 2010)", "key": {"retinoblastoma Rb": {"test_system": "retinoblastoma Rb", "test": "Western blot, phosphorylation of Rb factor (pRb)", "type": "cell-based", "settings": "Homo sapiens, FIG. 9", "description": "(§1) SDS-PAGE (Laemmli U.K. 1970, Nature 227, 680-685) and Western Blot (Towbin H., Staehelin T., Gordon J. 1979, Proc. Natl:Acad. Sci. USA 76, 4350-4354) techniques have been used to analyze the expression of proteins known as fundamental targets (markers) in the control of the cellular cycle, whose modifications often lead to an uncontrolled cell proliferation: cyclin-dependent kinase cdk6 (Cover C. M., et al, 1998, J. Biol. Chem. 273, 3838-3847), inhibitor p27 (Wang X., et al., 1997, Oncogene 15, 2991-2997; Vidal A., Koff A. 2000, Gene 247, 1-15) and retinoblastoma Rb (Dyson N. 1998, Genes & Development 12, 2245-2262; Guardavaccaro D., et al., 2000, Mol. Cell. Biol. 20 (5), 1797-1815).\n(§2) After growing the cells as previously described, the cell cultures undergo the action of increasing doses of tetramerous derivative. Then culture samples are taken and the cells are lysated with B buffer (Hepes 20 mM pH 7.5, NaCl 420 mM, MgCl2 1.5 mM, EDTA 0.2 mM, glycerol 25%) in presence of antiproteolytic agents Nonidet P40 0.5% (v/v), kept under ice for 20 minutes and centrifuged at 12,000 rpm for 10 minutes at 4° C.\n(§3) The cell lysate (supernatant liquor) is then diluted 1:1 with Sample Buffer 2× and charged into SDS-PAGE at 12% of acrylamide following Laemmli's method (Laemmli U.K. 1970, Nature 227, 680-685). […]"}, "inhibitor p27 [1]": {"test_system": "inhibitor p27", "test": "Western blot, p27 in MDA-MB-234", "type": "cell-based, human", "description": "as §1\n(§4) After growing the cells as previously described, the cell cultures undergo the action of increasing doses of tetramerous derivative. Then culture samples are taken and the cells are lysated with B buffer (Hepes 20 mM pH 7.5, NaCl 420 mM, MgCl2 1.5 mM, EDTA 0.2 mM, glycerol 25%) in presence of antiproteolytic agents Nonidet P40 0.5% (v/v), kept under ice for 20 minutes and centrifuged at 12,000 rpm for 10 minutes at 4° C. […]\n(§5) Said markers are then evaluated as previously described on estrogen-negative cell line MDA-MB-234."}, "inhibitor p27 [2]": {"test_system": "inhibitor p27", "test": "Western blot, level of protein p27 in MCF-7", "type": "cell-based, human", "settings": "MCF-7, same concentrations as for cdk6, FIG. 7", "description": "as §1, §2, §3"}, "enzyme cdk6": {"test_system": "enzyme cdk6", "test": "Western blot, cdk6 in MDA-MB-234", "type": "cell-based, human", "description": "as §1, §4, §5"}, "MCF-7 cells": {"test_system": "MCF-7 cells", "test": "Cytotoxicity, vital cell count with trypan blue", "type": "cell-based, human", "experimental": "(§6) In a second set of tests the activity of the tetramerous derivative on the two cell lines has been evaluated as cytotoxicity using a method (Magnani M. et al., 1995, Biochemical Journal no. 312, page 115-123) which allows to recognize vital from dead cells.\n(§7) MCF-7 and MDA-MB-234 cells have been grown as previously described. Then, after 24 and after 72 hours of exposition to the tetramerous derivative they are taken and counted in duplicate in a hemocytometer using trypan blue dye to exclude dead cells."}, "MDA-MB-234 cells": {"test_system": "MDA-MB-234 cells", "test": "Cytotoxicity, vital cell count with trypan blue", "type": "cell-based, human", "settings": "MDA-MB-234, FIG. 4", "experimental": "as §6, §7"}, "[3]": {"test_system": "MDA-MB-234 cells (negative for estrogen receptors)", "test": "Anti-proliferative effect, [3H]-thymidine incorporation into DNA", "type": "cell-based, human", "settings": "line MDA-MB-234, increasing concentrations, up to 72 hours, FIG. 2", "experimental": "(§8) The activity of the tetramerous derivative has been evaluated both in breast cancer cells grown in laboratory expressing estrogen receptors (line MCF-7) and in cells which are negative for said receptors (line MDA-MB-234).\n(§9) MCF-7 and MDA-MB-234 cells have been grown in laboratory in a DMEM medium added with 10% of bovine fetal serum, 1% of a penicillin-streptomycin solution, 1% of a solution of non-essential amino acids, 2 mM glutamine and for MCF-7 also with 10 ug/ml of insulin. For the tests the cells are taken and used in their logarithmic growth phase, suspending them again the same fresh medium and exposing them to the tetramerous derivative up to 72 hours at 37° C. in an atmosphere with 5% of CO2. Before the treatment the cells are grown for some hours so as to adhere well to the plastic and start proliferating. In the tests concerning the evaluation of the anti-proliferative activity the synthesis of DNA is evaluated by adding to the cultures 3 μCi/ml of [3H]-thymidine 6 hours before the end of the treatment.\n(§10) The cells are exposed during the culture to increasing concentrations of tetramerous derivative, then evaluating the degree of inhibition of their proliferation by incorporating into the DNA tritium-added thymidine (Cover C. M. et al., 1998, Journal of Biological Chemistry no. 273, page 3838-3847)."}, "[4]": {"test_system": "MCF-7 cells (breast cancer cells expressing estrogen receptors)", "test": "Anti-proliferative effect, [3H]-thymidine incorporation into DNA", "type": "cell-based, human", "settings": "line MCF-7, increasing concentrations, up to 72 hours, FIG. 1", "experimental": "as §8, §9, §10"}, "[5]": {"test_system": "cyclin-dependent kinase cdk6", "test": "Western blot, level of expression of cdk6 in MCF-7", "type": "cell-based, human", "settings": "FIG. 6", "description": "as §1, §2, §3"}}}
{"smiles": "c1ccc2c3c([nH]c2c1)Cc1c([nH]c2ccccc12)Cc1c([nH]c2ccccc12)Cc1c([nH]c2ccccc12)C3", "note": "[tetramerous derivative]", "values": [{"measurement": "inhibition at 30 µM", "setting": "retinoblastoma Rb", "result": 60, "unit": "%"}, {"measurement": "level of inhibitor p27", "setting": "inhibitor p27 [1]", "result": "increase"}, {"measurement": "level of protein p27", "setting": "inhibitor p27 [2]", "result": "increases"}, {"measurement": "level of enzyme cdk6", "setting": "enzyme cdk6", "result": "reduction"}, {"measurement": "toxicity (percentage of vital cells) in relation to time of administration", "setting": "MCF-7 cells; MCF-7, 24 and 72 hours, FIG. 5", "result": "time-dependent"}, {"measurement": "toxicity (percentage of vital cells) in relation to amount administered", "setting": "MCF-7 cells; MCF-7, FIG. 3", "result": "dose-dependent"}, {"measurement": "toxicity (percentage of vital cells) in relation to amount administered", "setting": "MDA-MB-234 cells", "result": "dose-dependent"}, {"measurement": "inhibition of cell proliferation", "setting": "[3]", "result": "inhibits in a dose-dependent way"}, {"measurement": "inhibition of cell proliferation", "setting": "[4]", "result": "inhibits in a dose-dependent way"}, {"measurement": "level of expression of cdk6", "setting": "[5]; MCF-7, 15 μM", "result": "great reduction"}, {"measurement": "level of expression of cdk6", "setting": "[5]; MCF-7, 50 μM", "result": "sudden decrease"}]}
